According to patent US9789096B2, “Methods and compositions for selective and targeted cancer therapy” (Board of Regents of the University of Texas System, priority 2013, dated 2017):

Each molecule was assayed on H2073 (assay: Cell viability dose-response, H2073). Details: Homo sapiens, NCI-H2073, Tables 3 and 4; read-out: IC50 (uM) vs indicated non-small cell lung cancer cell line H2073.
Type: cell-based, human
Procedure: FIG. 6A. […] Cell viability is plotted vs. compound concentration. Compound was added to cells plated at 15% confluence in 96-well plates in RPMI-1640 media supplemented with 5% Fetal Bovine Serum and 2 mM L-Glutamine. After 4 days of incubation, ATP levels were measured using Cell Titer Glo (Promega). Data are presented as the average of 2 replicates ±SEM.
Selectivity may be measured by the half maximal inhibitory concentration (IC50), which, as used herein, is a measure of the effectiveness of a compound in killing cells. This quantitative measure indicates how much of a particular compound is needed to kill a particular cell population by half (e.g., as indicated by the amount of ATP). […] The IC50 can be determined by constructing a dose-response curve. The lower the IC50, the higher the potency, and the greater the difference between IC50 values for different cell lines (e.g., sensitive lines vs. insensitive lines, and sensitive lines vs. normal lines) the greater the selectivity. […]
With this information, we synthesized and tested a series of small molecules derived in conception from the oxalamide and chromone scaffold including N-acyl ureas, as shown in Tables 6-8. Each compound was tested in a 12-point dose-response study starting at 50 micromolar and decreasing in 3-fold increments to sub-nanomolar concentrations, in duplicate. Additionally, one or more additional cell line was tested in the same way.
`Nc1cccc(C(=O)Nc2nc3ccccc3s2)c1` [SW209323-1] showed an IC50 of 0.816 µM. `NC(=O)c1ccc(C(=O)Nc2nc3ccccc3s2)cc1` [SW209411-1] gave an IC50 of 27.8 µM. For `O=C(O)c1ccc(C(=O)Nc2nc3ccccc3s2)cc1` [SW209412-1], the IC50 was 49.5 µM. In the case of `Nc1ccc2nc(NC(=O)c3ccc(C(=O)O)cc3)sc2c1` [SW209413-1], the IC50 is reported as 49.5 µM. `COC(=O)c1ccc(C(=O)Nc2nc3ccccc3s2)cc1` [SW209414-1] showed an IC50 of 49.5 µM. Work on `O=C(Nc1nc2cnccc2s1)c1ccccc1` [SW209562-1] yielded an IC50 of 49.5 µM. Molecule `Nc1ccc(C(=O)Nc2nc3ccccc3s2)cc1` [SW209563-1] has an IC50 of 0.184 µM. In the case of `O=C(c1ccccc1)c1ccc(/C(=N/c2nc3ccc(OCc4ccc(Cl)cc4)cc3s2)OCc2ccc(Cl)cc2)cc1` [SW211559-1], the IC50 is reported as 0.165 µM. `COC(=O)c1ccc2nc(NC(=O)c3ccc(C(=O)c4ccccc4)cc3)sc2c1` [SW211561-1] showed an IC50 of 29.1 µM. `Nc1ccc(C(=O)Nc2nc3ccccc3[nH]2)cc1` [SW211566] showed an IC50 of 49.5 µM.

Same assay, conditions: Homo sapiens, NCI-H2073; Table 8; 12-point dose-response starting at 50 micromolar
Work on `O=C1c2ccc(OCc3cnn(-c4ccccc4)c3)cc2OCC1Cc1ccccc1` (stereo not drawn) [SW209202-1] yielded an AC50 of 49.5 µM. Work on `O=c1c(Cc2cccnc2)coc2cc(OCc3cnn(-c4ccccc4)c3)ccc12` [SW209203-1] yielded an AC50 of 44 µM. With `O=c1c(Cc2cnccn2)coc2cc(OCc3cnn(-c4ccccc4)c3)ccc12` [SW209207-1] the AC50 was 49.5 µM. Molecule `COc1ncccc1Cc1coc2cc(OCc3cnn(-c4ccccc4)c3)ccc2c1=O` [SW209377-1] has an AC50 of 0.204 µM. With `O=c1c(Cc2cccs2)coc2cc(OCc3cnn(-c4ccccc4)c3)ccc12` [SW209378-1] the AC50 was 0.068 µM. Work on `O=c1c(Cc2ccsc2)coc2cc(OCc3cnn(-c4ccccc4)c3)ccc12` [SW209379-1] yielded an AC50 of 0.087 µM. `O=c1c(Cc2nccs2)coc2cc(OCc3cnn(-c4ccccc4)c3)ccc12` [SW209380-1] gave an AC50 of 17.7 µM. `O=c1c(Cc2cccc(O)c2)coc2cc(OCc3cnn(-c4ccccc4)c3)ccc12` [SW209381-1] was tested, and the AC50 was 49.5 µM. Work on `O=c1c(Cc2ccc(Cl)nc2)coc2cc(OCc3cnn(-c4ccccc4)c3)ccc12` [SW209382-1] yielded an AC50 of 0.244 µM. In the case of `NCCCCCOc1cccc(CC2=CCc3cc(OCc4cnn(-c5ccccc5)c4)ccc3C2=O)c1` [SW209383-1], the AC50 is reported as 49.5 µM. `O=C1/C(=C/c2ncc[nH]2)COc2cc(OCc3cnn(-c4ccccc4)c3)ccc21` [SW209384-1] gave an AC50 of 9.68 µM. `O=C1/C(=C/c2c[nH]cn2)COc2cc(OCc3cnn(-c4ccccc4)c3)ccc21` [SW209385-1] showed an AC50 of 12.2 µM. With `C#CCOc1cccc(-c2coc3cc(OCc4cnn(-c5ccccc5)c4)ccc3c2=O)c1` [SW 209087-1] the AC50 was 49.5 µM. `OC(CCc1ccc(Br)cc1)Cn1ccnc1` (stereo not drawn) [SW 209089-1] showed an AC50 of 49.5 µM.

These molecules were tested on H2122 (assay: Cell viability dose-response, H2122). Details: Homo sapiens, NCI-H2122, Table 8; 12-point dose-response starting at 50 micromolar.
Type: cell-based, human
Method in brief: (§1)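 Viability read as total ATP (Cell Titer Glo) following 4 days' compound exposure, with IC50 derived from dose-response curves. Duplicate 12-point series, top concentration 50 micromolar with 3-fold steps, on cells seeded at 15% confluence in RPMI-1640, 5% FBS, 2 mM L-glutamine.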
Work on `O=C1c2ccc(OCc3cnn(-c4ccccc4)c3)cc2OCC1Cc1ccccc1` (stereo not drawn) [SW209202-1] yielded an AC50 of 0.307 µM. `O=c1c(Cc2cccnc2)coc2cc(OCc3cnn(-c4ccccc4)c3)ccc12` [SW209203-1] gave an AC50 of 3.17 µM. With `O=c1c(Cc2cnccn2)coc2cc(OCc3cnn(-c4ccccc4)c3)ccc12` [SW209207-1] the AC50 was 26.6 µM. Molecule `COc1ncccc1Cc1coc2cc(OCc3cnn(-c4ccccc4)c3)ccc2c1=O` [SW209377-1] has an AC50 of 0.232 µM. With `O=c1c(Cc2cccs2)coc2cc(OCc3cnn(-c4ccccc4)c3)ccc12` [SW209378-1] the AC50 was 0.081 µM. Molecule `O=c1c(Cc2ccsc2)coc2cc(OCc3cnn(-c4ccccc4)c3)ccc12` [SW209379-1] has an AC50 of 0.082 µM. In the case of `O=c1c(Cc2nccs2)coc2cc(OCc3cnn(-c4ccccc4)c3)ccc12` [SW209380-1], the AC50 is reported as 0.352 µM. `O=c1c(Cc2cccc(O)c2)coc2cc(OCc3cnn(-c4ccccc4)c3)ccc12` [SW209381-1] gave an AC50 of 7.03 µM. `O=c1c(Cc2ccc(Cl)nc2)coc2cc(OCc3cnn(-c4ccccc4)c3)ccc12` [SW209382-1] was tested, and the AC50 was 0.325 µM. `NCCCCCOc1cccc(CC2=CCc3cc(OCc4cnn(-c5ccccc5)c4)ccc3C2=O)c1` [SW209383-1] gave an AC50 of 2.37 µM. In the case of `O=C1/C(=C/c2ncc[nH]2)COc2cc(OCc3cnn(-c4ccccc4)c3)ccc21` [SW209384-1], the AC50 is reported as 14 µM. `O=C1/C(=C/c2c[nH]cn2)COc2cc(OCc3cnn(-c4ccccc4)c3)ccc21` [SW209385-1] gave an AC50 of no less than 49.5 µM. `C#CCOc1cccc(-c2coc3cc(OCc4cnn(-c5ccccc5)c4)ccc3c2=O)c1` [SW 209087-1] was tested, and the AC50 was 0.106 µM. In the case of `OC(CCc1ccc(Br)cc1)Cn1ccnc1` (stereo not drawn) [SW 209089-1], the AC50 is reported as no less than 49.5 µM.

Same assay, conditions: Homo sapiens, NCI-H2122, Tables 3 and 4; read-out: IC50 (uM) vs indicated non-small cell lung cancer cell line H2122
For `Nc1cccc(C(=O)Nc2nc3ccccc3s2)c1` [SW209323-1], the IC50 was 0.099 µM. Molecule `NC(=O)c1ccc(C(=O)Nc2nc3ccccc3s2)cc1` [SW209411-1] has an IC50 of no less than 49.5 µM. `O=C(O)c1ccc(C(=O)Nc2nc3ccccc3s2)cc1` [SW209412-1] was tested, and the IC50 was no less than 49.5 µM. With `Nc1ccc2nc(NC(=O)c3ccc(C(=O)O)cc3)sc2c1` [SW209413-1] the IC50 was no less than 49.5 µM. In the case of `COC(=O)c1ccc(C(=O)Nc2nc3ccccc3s2)cc1` [SW209414-1], the IC50 is reported as no less than 49.5 µM. For `O=C(Nc1nc2cnccc2s1)c1ccccc1` [SW209562-1], the IC50 was no less than 49.5 µM. In the case of `Nc1ccc(C(=O)Nc2nc3ccccc3s2)cc1` [SW209563-1], the IC50 is reported as 0.027 µM. `O=C(c1ccccc1)c1ccc(/C(=N/c2nc3ccc(OCc4ccc(Cl)cc4)cc3s2)OCc2ccc(Cl)cc2)cc1` [SW211559-1] was tested, and the IC50 was 0.086 µM. Molecule `COC(=O)c1ccc2nc(NC(=O)c3ccc(C(=O)c4ccccc4)cc3)sc2c1` [SW211561-1] has an IC50 of 7.75 µM. In the case of `Nc1ccc(C(=O)Nc2nc3ccccc3[nH]2)cc1` [SW211566], the IC50 is reported as no less than 49.5 µM.

These molecules were tested on H1819 (assay: Cell viability dose-response, H1819). Details: Homo sapiens, NCI-H1819, Tables 3 and 4; read-out: IC50 (uM) vs indicated non-small cell lung cancer cell line H1819.
Type: cell-based, human
Method in brief: as §1
In the case of `Nc1cccc(C(=O)Nc2nc3ccccc3s2)c1` [SW209323-1], the IC50 is reported as 40.3 µM. In the case of `NC(=O)c1ccc(C(=O)Nc2nc3ccccc3s2)cc1` [SW209411-1], the IC50 is reported as 3.1 µM. `O=C(O)c1ccc(C(=O)Nc2nc3ccccc3s2)cc1` [SW209412-1] gave an IC50 of no less than 49.5 µM. Work on `Nc1ccc2nc(NC(=O)c3ccc(C(=O)O)cc3)sc2c1` [SW209413-1] yielded an IC50 of no less than 49.5 µM. Molecule `COC(=O)c1ccc(C(=O)Nc2nc3ccccc3s2)cc1` [SW209414-1] has an IC50 of no less than 49.5 µM. Work on `O=C(Nc1nc2cnccc2s1)c1ccccc1` [SW209562-1] yielded an IC50 of no less than 49.5 µM. Work on `Nc1ccc(C(=O)Nc2nc3ccccc3s2)cc1` [SW209563-1] yielded an IC50 of 19.7 µM. Molecule `O=C(c1ccccc1)c1ccc(/C(=N/c2nc3ccc(OCc4ccc(Cl)cc4)cc3s2)OCc2ccc(Cl)cc2)cc1` [SW211559-1] has an IC50 of 0.9 µM. `COC(=O)c1ccc2nc(NC(=O)c3ccc(C(=O)c4ccccc4)cc3)sc2c1` [SW211561-1] gave an IC50 of 16.5 µM. With `Nc1ccc(C(=O)Nc2nc3ccccc3[nH]2)cc1` [SW211566] the IC50 was no less than 49.5 µM.

Same assay, conditions: Homo sapiens, NCI-H1819; Table 8; 12-point dose-response starting at 50 micromolar
In the case of `O=C1c2ccc(OCc3cnn(-c4ccccc4)c3)cc2OCC1Cc1ccccc1` (stereo not drawn) [SW209202-1], the AC50 is reported as 49.5 µM. `O=c1c(Cc2cccnc2)coc2cc(OCc3cnn(-c4ccccc4)c3)ccc12` [SW209203-1] was tested, and the AC50 was 49.5 µM. Molecule `O=c1c(Cc2cnccn2)coc2cc(OCc3cnn(-c4ccccc4)c3)ccc12` [SW209207-1] has an AC50 of 49.5 µM. For `COc1ncccc1Cc1coc2cc(OCc3cnn(-c4ccccc4)c3)ccc2c1=O` [SW209377-1], the AC50 was 49.5 µM. `O=c1c(Cc2cccs2)coc2cc(OCc3cnn(-c4ccccc4)c3)ccc12` [SW209378-1] was tested, and the AC50 was 49.5 µM. In the case of `O=c1c(Cc2ccsc2)coc2cc(OCc3cnn(-c4ccccc4)c3)ccc12` [SW209379-1], the AC50 is reported as 49.5 µM. Work on `O=c1c(Cc2nccs2)coc2cc(OCc3cnn(-c4ccccc4)c3)ccc12` [SW209380-1] yielded an AC50 of 21.2 µM. Molecule `O=c1c(Cc2cccc(O)c2)coc2cc(OCc3cnn(-c4ccccc4)c3)ccc12` [SW209381-1] has an AC50 of 49.5 µM. `O=c1c(Cc2ccc(Cl)nc2)coc2cc(OCc3cnn(-c4ccccc4)c3)ccc12` [SW209382-1] was tested, and the AC50 was 49.5 µM. For `NCCCCCOc1cccc(CC2=CCc3cc(OCc4cnn(-c5ccccc5)c4)ccc3C2=O)c1` [SW209383-1], the AC50 was 49.5 µM. `O=C1/C(=C/c2ncc[nH]2)COc2cc(OCc3cnn(-c4ccccc4)c3)ccc21` [SW209384-1] gave an AC50 of 15.5 µM. In the case of `O=C1/C(=C/c2c[nH]cn2)COc2cc(OCc3cnn(-c4ccccc4)c3)ccc21` [SW209385-1], the AC50 is reported as 18 µM. `C#CCOc1cccc(-c2coc3cc(OCc4cnn(-c5ccccc5)c4)ccc3c2=O)c1` [SW 209087-1] was tested, and the AC50 was 49.5 µM. Molecule `OC(CCc1ccc(Br)cc1)Cn1ccnc1` (stereo not drawn) [SW 209089-1] has an AC50 of 49.5 µM.
